This note sets out measurements from paper PMC6142691, “Cannabidiol enhances morphine antinociception, diminishes NMDA-mediated seizures and reduces stroke damage via the sigma 1 receptor” (Molecular Brain, 2018).

As usually defined, the EC50 is the concentration that produces a half-maximal response. Broadly, the Ki is the dissociation constant of the complex between target and ligand, obtained from inhibition or displacement. A high value points to a looser hold on the target.

The target of experiment [1] is T1, sigma 1 receptor (σ1R) (Mus musculus, UniProt O55242). Put plainly: in vitro pull-down: reversal of progesterone/CBD-induced disruption of recombinant σ1R-NR1 complex. The class given is biochemical. More on the design: gene Sigmar1; murine full-length (1–223) σ1R, recombinant from E. coli, GST-free; with NMDAR NR1 subunit C-terminal region (residues 827–938).
T1 sequence (O55242 whole entry, the tested form may be a part): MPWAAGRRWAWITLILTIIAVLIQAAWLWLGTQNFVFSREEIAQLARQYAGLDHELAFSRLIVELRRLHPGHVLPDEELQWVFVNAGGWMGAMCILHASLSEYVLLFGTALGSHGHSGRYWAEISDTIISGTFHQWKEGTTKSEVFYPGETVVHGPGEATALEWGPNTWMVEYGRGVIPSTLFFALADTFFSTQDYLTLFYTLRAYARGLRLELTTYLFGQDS
T1 sequence (P35438 827-938 partner): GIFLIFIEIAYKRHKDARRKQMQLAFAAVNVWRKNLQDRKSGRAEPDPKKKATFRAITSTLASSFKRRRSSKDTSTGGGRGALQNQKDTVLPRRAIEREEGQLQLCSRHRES
For experiment [2], the target named is T1, sigma 1 receptor (σ1R). In words: in vitro pull-down: disruption of recombinant σ1R-NR1 complex, immunoblot. More on the design: gene Sigmar1; murine full-length (1–223) σ1R, recombinant from E. coli, GST-free; with NMDAR NR1 subunit C-terminal region (residues 827–938). The class given is binding. A general note: Immunoblotting shows a protein as a band on a membrane.

The target in experiment [3] is T1, sigma 1 receptor (σ1R). In words: biochemical. More on the design: gene Sigmar1.

Turning to `O=C(OCCN1CCOCC1)C1(c2ccccc2)CCCCC1` [PRE084], the “in vitro pull-down: reversal of progesterone/CBD-induced disruption of recombina” value on sigma 1 receptor (σ1R) [1] was “PPCC, PRE084 and 4-IBP did not alter σ1R-NR1 associations but reduced the capacity of progesterone and CBD”. Turning to `O=C(NC1CCN(Cc2ccccc2)CC1)c1ccc(I)cc1` [4-IBP], the “in vitro pull-down: reversal of progesterone/CBD-induced disruption of recombina” value at sigma 1 receptor (σ1R) [1] was “PPCC, PRE084 and 4-IBP did not alter σ1R-NR1 associations but reduced the capacity of progesterone and CBD”. `C=C(C)[C@@H]1CCC(C)=C[C@H]1c1c(O)cc(CCCCC)cc1O` [CBD, Cannabidiol]: the concentration giving a half-maximal response (EC50) at sigma 1 receptor (σ1R) [2] is about 0.1 nM. Same read-out and setting: the result for `CC(=O)[C@H]1CC[C@H]2[C@@H]3CCC4=CC(=O)CC[C@]4(C)[C@H]3CC[C@]12C` [Progesterone] reads about 0.03 nM; that for `CN1CCN(CCc2ccc(Cl)c(Cl)c2)CC1` [BD1063], about 0.03 nM. Compound `COC(=O)[C@]1(c2ccc(C)cc2)C[C@@H]1CN1CCC(O)(c2ccccc2)CC1` (racemic) [PPCC] returned an inhibition constant (Ki) on sigma 1 receptor (σ1R) [3] of 0.06 nM.
